Data from ChEMBL document CHEMBL1201862, “PubChem BioAssay data set” (2004).
The source made the active and inactive calls.

Assays:
[1] = target: T1, Mucolipin-3 (Homo sapiens, UniProt Q8TDD5); assay: Fluorescence counterscreen assay for […] agonists: dose response cell-based high-throughput screening assay to identify agonists of the transient receptor potential channel ML3 (TRPML3). [Related pubchem assays: 1424, 1448 ]; format: functional
T1 sequence (Q8TDD5 whole entry): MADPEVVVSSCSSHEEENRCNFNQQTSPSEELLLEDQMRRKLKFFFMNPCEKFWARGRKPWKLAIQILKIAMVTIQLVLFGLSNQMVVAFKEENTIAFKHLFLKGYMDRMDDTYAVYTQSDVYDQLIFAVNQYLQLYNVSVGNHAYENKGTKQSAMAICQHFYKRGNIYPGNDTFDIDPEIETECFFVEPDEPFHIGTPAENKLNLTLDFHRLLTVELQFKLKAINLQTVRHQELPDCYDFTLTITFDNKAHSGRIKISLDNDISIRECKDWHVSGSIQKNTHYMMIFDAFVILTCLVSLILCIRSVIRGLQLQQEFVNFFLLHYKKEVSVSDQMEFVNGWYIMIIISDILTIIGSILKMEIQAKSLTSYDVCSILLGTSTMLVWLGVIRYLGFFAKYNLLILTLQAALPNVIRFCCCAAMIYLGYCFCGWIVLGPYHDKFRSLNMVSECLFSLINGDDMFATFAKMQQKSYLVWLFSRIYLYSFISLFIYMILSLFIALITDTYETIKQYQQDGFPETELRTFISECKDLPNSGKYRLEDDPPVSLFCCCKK

[2] = target: Ion channel NompC (Danio rerio, UniProt Q7T1G6); assay: Dose response cell-based high-throughput screening assay for agonists of the transient receptor potential channel N1 (TRPN1). [Related pubchem assays (depositor defined):AID1424, AID1448]; format: functional
[3] = target: Nonstructural protein 1 (Influenza A virus, UniProt Q194T2); format: functional, Influenza A virus (A/California/07/2009(H1N1))
[4] = cells; format: functional, cell-based
[5] = cells; format: functional, cell-based; remark: listed apart in the source
[6] = target: Intestinal-type alkaline phosphatase (Mus musculus, UniProt P24822); assay: mouse intestinal alkaline phosphatase activators, dose response, biochemical, luminescence, uHTS hits (AID 488783); format: functional
[7] = target: T2, Histone-lysine N-methyltransferase NSD2 (Homo sapiens, UniProt O96028); format: biochemical
T2 sequence (O96028 whole entry): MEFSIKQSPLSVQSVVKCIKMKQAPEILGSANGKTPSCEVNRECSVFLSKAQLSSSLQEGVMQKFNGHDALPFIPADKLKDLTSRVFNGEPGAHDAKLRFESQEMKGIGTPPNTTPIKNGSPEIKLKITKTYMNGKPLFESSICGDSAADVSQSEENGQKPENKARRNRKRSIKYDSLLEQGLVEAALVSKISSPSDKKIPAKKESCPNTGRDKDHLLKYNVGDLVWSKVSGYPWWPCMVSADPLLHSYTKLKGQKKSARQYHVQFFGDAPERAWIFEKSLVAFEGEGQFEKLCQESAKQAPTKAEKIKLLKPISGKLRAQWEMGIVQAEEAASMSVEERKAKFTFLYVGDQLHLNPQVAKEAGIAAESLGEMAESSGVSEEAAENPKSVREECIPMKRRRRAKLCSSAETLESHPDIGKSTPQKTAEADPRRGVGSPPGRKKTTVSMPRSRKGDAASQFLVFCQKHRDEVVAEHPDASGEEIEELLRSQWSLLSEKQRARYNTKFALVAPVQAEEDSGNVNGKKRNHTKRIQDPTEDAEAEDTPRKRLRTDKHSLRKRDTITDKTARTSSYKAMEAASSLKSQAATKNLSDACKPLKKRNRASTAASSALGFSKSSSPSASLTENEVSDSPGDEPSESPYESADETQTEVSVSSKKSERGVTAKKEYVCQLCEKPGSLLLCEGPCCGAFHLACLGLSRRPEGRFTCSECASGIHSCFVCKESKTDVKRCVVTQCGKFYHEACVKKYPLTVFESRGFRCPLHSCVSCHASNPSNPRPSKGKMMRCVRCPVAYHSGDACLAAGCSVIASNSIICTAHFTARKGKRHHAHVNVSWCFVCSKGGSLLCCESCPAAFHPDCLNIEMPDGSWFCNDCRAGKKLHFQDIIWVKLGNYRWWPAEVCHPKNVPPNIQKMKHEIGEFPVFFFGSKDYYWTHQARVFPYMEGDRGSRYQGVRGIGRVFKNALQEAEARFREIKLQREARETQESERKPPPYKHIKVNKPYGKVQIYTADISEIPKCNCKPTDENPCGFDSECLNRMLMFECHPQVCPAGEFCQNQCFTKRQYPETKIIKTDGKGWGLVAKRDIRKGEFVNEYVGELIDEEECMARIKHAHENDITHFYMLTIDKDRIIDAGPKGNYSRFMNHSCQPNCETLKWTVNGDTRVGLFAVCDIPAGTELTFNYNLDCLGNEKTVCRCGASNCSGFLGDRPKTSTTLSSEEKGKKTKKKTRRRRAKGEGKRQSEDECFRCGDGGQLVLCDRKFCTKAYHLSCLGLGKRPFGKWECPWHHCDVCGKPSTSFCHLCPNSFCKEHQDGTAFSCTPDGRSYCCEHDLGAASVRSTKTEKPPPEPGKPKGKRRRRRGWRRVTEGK

[8] = target: Large T antigen (Simian virus 40, UniProt P03070); format: functional, Betapolyomavirus macacae;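 further: Confirmatory-stage PubChem screen for compounds that inhibit SV40 T antigen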
[9] = target: T3, Alkaline phosphatase, tissue-nonspecific isozyme (Homo sapiens, UniProt P05186); assay: TNAP enzyme activators, dose response, selectivity assay for mouse IAP activator project, biochemical, TNAP isozyme, mouse IAP uHTS hits (AID 488880); format: functional
T3 sequence (P05186 whole entry): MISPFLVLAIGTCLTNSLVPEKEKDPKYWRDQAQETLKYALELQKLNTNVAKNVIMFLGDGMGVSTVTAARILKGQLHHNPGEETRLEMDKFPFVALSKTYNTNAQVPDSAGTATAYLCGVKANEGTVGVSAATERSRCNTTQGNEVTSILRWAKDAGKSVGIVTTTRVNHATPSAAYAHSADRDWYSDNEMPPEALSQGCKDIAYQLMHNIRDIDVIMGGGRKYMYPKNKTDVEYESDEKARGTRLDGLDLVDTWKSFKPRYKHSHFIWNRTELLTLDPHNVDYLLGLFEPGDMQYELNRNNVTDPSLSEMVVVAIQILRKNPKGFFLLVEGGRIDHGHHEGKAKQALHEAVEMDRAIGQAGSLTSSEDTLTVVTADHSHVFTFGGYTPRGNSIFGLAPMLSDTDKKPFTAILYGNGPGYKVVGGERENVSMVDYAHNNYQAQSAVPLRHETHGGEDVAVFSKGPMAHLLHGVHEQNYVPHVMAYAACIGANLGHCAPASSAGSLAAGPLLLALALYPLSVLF

[10] = target: Intestinal-type alkaline phosphatase (Homo sapiens, UniProt P09923); assay: activation of human intestinal alkaline phosphatase – biochemical, dose response (AID 488873); format: functional
[11] = target: T3, Alkaline phosphatase, tissue-nonspecific isozyme; assay: human TNAP enzyme inhibitors, SAR follow-up, biochemical, luminescent, dose response (AID 1056)
[12] = target: Alkaline phosphatase, placental type (Homo sapiens, UniProt P05187); assay: PLAP enzyme inhibitors, confirmation, biochemical, luminescence (AID 1512); format: functional
Chain of Alkaline phosphatase, placental type (P05187 whole entry): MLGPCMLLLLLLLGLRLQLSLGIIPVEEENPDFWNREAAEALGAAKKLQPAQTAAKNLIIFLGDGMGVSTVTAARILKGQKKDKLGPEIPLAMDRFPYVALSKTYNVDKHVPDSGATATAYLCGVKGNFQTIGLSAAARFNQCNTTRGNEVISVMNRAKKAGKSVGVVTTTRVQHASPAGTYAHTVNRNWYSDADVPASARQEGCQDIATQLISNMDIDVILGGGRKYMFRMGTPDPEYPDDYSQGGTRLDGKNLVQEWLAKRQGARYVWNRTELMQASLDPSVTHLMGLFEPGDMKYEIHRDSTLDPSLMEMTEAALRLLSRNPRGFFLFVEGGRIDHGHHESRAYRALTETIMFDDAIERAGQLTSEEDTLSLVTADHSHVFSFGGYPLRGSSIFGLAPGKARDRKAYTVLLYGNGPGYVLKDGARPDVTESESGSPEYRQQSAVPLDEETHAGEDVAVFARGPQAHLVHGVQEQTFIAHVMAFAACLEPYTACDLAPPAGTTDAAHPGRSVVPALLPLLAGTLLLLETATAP

Chain of Ion channel NompC (Q7T1G6 whole entry): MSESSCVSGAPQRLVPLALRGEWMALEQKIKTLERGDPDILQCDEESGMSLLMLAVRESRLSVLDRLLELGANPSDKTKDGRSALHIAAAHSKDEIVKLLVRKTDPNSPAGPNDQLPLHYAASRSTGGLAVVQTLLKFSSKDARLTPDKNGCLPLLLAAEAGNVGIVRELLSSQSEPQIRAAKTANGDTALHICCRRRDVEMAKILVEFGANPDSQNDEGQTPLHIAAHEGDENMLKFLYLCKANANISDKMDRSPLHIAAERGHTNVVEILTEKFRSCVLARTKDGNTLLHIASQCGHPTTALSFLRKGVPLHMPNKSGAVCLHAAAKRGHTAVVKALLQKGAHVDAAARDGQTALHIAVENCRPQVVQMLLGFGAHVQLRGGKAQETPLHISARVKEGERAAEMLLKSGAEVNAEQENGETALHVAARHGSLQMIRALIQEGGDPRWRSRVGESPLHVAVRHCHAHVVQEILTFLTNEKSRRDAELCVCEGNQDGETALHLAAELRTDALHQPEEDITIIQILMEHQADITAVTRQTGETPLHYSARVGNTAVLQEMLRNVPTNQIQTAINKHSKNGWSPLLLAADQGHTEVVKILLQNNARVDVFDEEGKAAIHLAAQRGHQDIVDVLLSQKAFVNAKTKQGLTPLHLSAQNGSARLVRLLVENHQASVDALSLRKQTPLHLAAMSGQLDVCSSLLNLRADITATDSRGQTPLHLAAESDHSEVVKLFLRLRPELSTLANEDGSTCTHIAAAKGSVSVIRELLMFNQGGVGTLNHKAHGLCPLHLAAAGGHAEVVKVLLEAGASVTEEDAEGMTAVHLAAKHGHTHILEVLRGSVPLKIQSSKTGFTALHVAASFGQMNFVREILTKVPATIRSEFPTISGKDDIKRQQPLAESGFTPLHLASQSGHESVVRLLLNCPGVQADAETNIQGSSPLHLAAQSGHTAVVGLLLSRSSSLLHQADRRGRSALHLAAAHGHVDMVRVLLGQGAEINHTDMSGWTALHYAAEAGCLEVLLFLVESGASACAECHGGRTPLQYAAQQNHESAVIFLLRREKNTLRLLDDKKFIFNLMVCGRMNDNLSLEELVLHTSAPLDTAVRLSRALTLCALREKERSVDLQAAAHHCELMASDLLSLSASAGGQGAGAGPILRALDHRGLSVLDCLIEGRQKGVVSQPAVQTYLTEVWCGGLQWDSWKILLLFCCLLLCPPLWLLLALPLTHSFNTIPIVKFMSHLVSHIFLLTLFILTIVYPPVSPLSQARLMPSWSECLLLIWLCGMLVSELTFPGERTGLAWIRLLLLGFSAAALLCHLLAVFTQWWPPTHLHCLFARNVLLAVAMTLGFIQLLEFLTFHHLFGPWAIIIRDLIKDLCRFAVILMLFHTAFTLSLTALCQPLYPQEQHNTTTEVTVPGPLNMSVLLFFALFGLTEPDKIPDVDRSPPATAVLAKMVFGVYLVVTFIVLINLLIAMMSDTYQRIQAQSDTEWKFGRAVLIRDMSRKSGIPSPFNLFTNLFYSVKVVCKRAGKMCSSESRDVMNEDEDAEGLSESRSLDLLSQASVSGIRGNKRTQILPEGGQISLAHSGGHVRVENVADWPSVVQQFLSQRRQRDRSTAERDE
Chain of Nonstructural protein 1 (Q194T2 whole entry): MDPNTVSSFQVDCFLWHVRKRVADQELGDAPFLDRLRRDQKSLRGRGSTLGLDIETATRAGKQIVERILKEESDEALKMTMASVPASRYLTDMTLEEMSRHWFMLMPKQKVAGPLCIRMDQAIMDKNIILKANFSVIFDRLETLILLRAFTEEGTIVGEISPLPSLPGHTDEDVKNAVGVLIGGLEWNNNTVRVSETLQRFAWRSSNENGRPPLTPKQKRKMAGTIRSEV
Chain of Intestinal-type alkaline phosphatase (Homo sapiens, UniProt P09923) (P09923 whole entry): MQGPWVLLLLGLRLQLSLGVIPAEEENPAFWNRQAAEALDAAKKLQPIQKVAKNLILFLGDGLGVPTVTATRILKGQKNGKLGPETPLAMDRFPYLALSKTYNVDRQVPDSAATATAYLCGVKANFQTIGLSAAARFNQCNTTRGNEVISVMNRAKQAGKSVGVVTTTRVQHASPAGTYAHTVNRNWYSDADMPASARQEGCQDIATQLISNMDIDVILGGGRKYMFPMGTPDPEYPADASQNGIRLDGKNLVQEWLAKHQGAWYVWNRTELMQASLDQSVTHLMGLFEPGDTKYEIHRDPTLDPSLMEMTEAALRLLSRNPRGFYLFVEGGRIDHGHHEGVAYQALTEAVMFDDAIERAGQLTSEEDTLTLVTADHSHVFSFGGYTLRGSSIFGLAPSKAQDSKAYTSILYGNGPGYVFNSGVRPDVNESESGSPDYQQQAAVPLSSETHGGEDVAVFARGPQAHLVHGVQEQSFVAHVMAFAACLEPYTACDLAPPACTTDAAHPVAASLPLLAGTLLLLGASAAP
Chain of Intestinal-type alkaline phosphatase (Mus musculus, UniProt P24822) (P24822 whole entry): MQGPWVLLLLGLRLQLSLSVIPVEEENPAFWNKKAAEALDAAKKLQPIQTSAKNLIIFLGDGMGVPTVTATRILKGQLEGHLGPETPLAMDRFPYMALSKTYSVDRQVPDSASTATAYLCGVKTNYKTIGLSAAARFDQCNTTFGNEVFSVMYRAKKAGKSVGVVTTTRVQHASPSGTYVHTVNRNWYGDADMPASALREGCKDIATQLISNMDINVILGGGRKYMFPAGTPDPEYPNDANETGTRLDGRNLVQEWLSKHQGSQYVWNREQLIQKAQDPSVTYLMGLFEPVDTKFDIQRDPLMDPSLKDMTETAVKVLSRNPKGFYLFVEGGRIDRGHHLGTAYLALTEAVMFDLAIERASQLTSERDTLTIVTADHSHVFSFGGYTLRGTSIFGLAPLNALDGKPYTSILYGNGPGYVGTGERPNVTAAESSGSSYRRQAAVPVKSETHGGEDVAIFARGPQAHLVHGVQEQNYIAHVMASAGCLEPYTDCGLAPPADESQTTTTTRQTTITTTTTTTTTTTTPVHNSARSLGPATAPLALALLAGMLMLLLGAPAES
Chain of Large T antigen (P03070 whole entry): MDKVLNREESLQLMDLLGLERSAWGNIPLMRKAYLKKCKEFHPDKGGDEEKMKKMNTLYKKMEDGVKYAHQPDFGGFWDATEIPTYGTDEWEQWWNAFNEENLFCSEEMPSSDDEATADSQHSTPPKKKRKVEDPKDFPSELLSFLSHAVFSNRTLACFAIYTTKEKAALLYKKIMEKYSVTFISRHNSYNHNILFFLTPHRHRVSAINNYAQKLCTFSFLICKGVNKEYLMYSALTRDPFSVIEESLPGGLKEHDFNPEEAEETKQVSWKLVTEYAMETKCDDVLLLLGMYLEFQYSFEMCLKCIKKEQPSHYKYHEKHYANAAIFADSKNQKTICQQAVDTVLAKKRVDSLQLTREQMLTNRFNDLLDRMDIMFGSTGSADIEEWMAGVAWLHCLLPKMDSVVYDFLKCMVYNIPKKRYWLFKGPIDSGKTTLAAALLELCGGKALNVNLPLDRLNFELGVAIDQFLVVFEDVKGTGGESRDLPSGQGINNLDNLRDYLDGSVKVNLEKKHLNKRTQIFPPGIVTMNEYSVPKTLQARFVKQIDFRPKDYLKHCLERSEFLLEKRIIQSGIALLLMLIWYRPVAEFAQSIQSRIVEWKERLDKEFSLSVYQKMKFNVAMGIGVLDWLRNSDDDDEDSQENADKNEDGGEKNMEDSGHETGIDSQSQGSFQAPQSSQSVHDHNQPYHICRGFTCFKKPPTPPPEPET

For `O=C(O)c1cc2c(cc1Br)OCCCO2`, the EC50 [1] was > 29.9 µM (not active) and the EC50 [2] was > 29.9 µM (inactive).

For `O=C(N/N=C/c1cc(Cl)cc(Cl)c1O)c1ccncc1`, the IC50 [3] was 5.57 µM (active), the EC50 [1] was 14.2 µM (not active) and the EC50 [4] was > 350 µM (not active). For the same compound, the EC50 [2] was 6.49 µM (active) and the EC50 [5] was 259 µM (active).

In the case of `O=C(CSc1nc2ccccc2o1)N/N=C/c1ccc(O)c(O)c1`, the EC50 [6] is reported as 69.9 µM (active), the AC50 [7] is reported as 742 nM (active) and the IC50 [8] is reported as 6.69 µM (active). The EC50 [9] was 61.7 µM (active) and the EC50 [10] was 63 µM (active).

With `Cc1cc(C)nc(SCC(=O)c2ccc(O)cc2)n1` the IC50 [11] was > 100 µM (inactive) and the IC50 [12] was > 100 µM (inactive).
